The text below walks through data of patent US20230183239A1, “ECTONUCLEOTIDE PYROPHOSPHATASE-PHOSPHODIESTERASE 1 (ENPP-1) INHIBITORS AND USES THEREOF” (AbbVie Inc., priority 2017, published 2023).

For this assay, the target named is T1, ENPP1 (Homo sapiens, UniProt P22413).
T1 sequence (P22413 1-925): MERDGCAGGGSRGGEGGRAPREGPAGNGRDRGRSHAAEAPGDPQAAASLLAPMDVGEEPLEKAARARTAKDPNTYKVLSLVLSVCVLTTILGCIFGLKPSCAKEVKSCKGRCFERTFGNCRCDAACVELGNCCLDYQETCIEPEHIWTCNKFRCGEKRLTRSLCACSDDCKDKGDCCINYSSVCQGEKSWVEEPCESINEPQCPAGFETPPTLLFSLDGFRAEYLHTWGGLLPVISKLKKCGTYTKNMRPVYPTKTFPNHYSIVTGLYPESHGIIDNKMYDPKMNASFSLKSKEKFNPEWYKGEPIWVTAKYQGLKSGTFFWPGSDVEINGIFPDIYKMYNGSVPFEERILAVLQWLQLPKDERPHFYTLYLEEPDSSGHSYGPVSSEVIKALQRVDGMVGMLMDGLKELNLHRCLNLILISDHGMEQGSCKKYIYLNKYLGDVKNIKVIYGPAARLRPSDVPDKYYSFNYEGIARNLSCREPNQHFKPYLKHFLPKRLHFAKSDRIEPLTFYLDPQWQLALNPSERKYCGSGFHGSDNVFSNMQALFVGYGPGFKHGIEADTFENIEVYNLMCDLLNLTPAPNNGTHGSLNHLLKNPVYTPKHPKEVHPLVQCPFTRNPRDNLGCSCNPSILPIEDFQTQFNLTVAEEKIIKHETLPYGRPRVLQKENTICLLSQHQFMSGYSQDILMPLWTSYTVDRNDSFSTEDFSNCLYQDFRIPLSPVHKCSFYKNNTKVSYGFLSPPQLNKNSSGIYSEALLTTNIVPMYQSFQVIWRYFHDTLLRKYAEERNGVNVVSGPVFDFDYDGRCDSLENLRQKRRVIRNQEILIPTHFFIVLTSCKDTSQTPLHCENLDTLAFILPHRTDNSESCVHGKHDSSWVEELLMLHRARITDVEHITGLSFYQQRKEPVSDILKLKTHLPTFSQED
In words: Indirect quantitation of 2',3'-cGAMP hydrolysis (AMP-Glo Assay kit). It counts as biochemical. The settings on record: cGAMP substrate; Ki from IC50 by Cheng-Prusoff; read-out: ENPP1 Inhibition -cGAMP: Ki.
With `COc1cc2c(-c3ccc4c(c3)CN(S(N)(=O)=O)CC4)c(C#N)cnc2cn1` [Example 257, 7-(3-cyano-6-methoxy-1,7-naphthyridin-4-yl)-3,4-dihydroisoquinoline-2(1H)-sulfonamide], the Ki was above 1 µM.
With `COc1cc2ncnc(Nc3ccc(N4CCNS4(=O)=O)cc3)c2cc1OC` [Example 243, 2-(4-((6,7-dimethoxyquinazolin-4-yl)amino)phenyl)-1,2,5-thiadiazolidine 1,1-dioxide] the figure was above 1 µM; with `COc1ccc(C(=O)N2CCC(CCNS(N)(=O)=O)CC2)cc1OC` [Example 47, N (2-(1-(3,4-dimethoxybenzoyl)piperidin-4-yl)ethyl)sulfamide], above 1 µM; with `COc1cc2ncnc(N3CCC(CCNC(N)=O)CC3)c2cc1OC` [Example 117, 1-(2-(1-(6,7-dimethoxyquinazolin-4-yl)piperidin-4-yl)ethyl)urea], 0.1 to 1 µM.
Regarding `NS(=O)(=O)NCCC1CCN(c2ncnc3c[nH]nc23)CC1` [Example 27, N-(2-(1-(1H-pyrazolo[4,3-d]pyrimidin-7-yl)piperidin-4-yl)ethyl)sulfamide], the Ki is above 1 µM.
The figure for `COc1ccc2c(Oc3ccc(NS(N)(=O)=O)cc3C)ccnc2c1` [Example 326, N-(4-((7-methoxyquinolin-4-yl)oxy)-3-methylphenyl)sulfamide] is below 0.1 µM; for `COc1ccc2c(Oc3ccc(NS(N)(=O)=O)cc3OC)ccnc2c1` [Example 323, N-(3-methoxy-4-((7-methoxyquinolin-4-yl)oxy)phenyl)sulfamide] it is above 1 µM; for `COc1cnc2c(-c3ccc(CNS(N)(=O)=O)cc3)ccnc2c1` [Example 369, N-(4-(7-methoxy-1,5-naphthyridin-4-yl)benzyl)sulfamide] it is above 1 µM.
For the molecule `CCOc1ccc(S(=O)(=O)N2CCN(C)CC2)cc1-c1ncnc2cc(OC)c(OC)cc12` [Example 337, 4-(2-ethoxy-5-((4-methylpiperazin-1-yl)sulfonyl)phenyl)-6,7-dimethoxyquinazoline], the Ki is above 1 µM.
With `COc1ccc2c(c1)OCCC2Oc1ccc(NS(N)(=O)=O)cc1` (stereo not drawn) [Example 399, (4-((7-methoxychroman-4-yl)oxy)phenyl)sulfamide] the figure was above 1 µM; with `NS(=O)(=O)NCCC1CCN(C(=O)c2ccccc2)CC1` [Example 50, N-(2-(1-(benzoyl)piperidin-4-yl)ethyl)sulfamide], above 1 µM.
With `COc1ccc(-c2cc(N3CCC(CCNS(N)(=O)=O)CC3)ncn2)cc1OC` [Example 38, N-(2-(1-(6-(3,4-dimethoxyphenyl)pyrimidin-4-yl)piperidin-4-yl)ethyl)sulfamide] the figure was above 1 µM; with `Cc1cc(N2CCC(CCNS(N)(=O)=O)CC2)ncn1` [Example 16, N-(2-(1-(6-methylpyrimidin-4-yl)piperidin-4-yl)ethyl)sulfamide], above 1 µM.
With `COc1cc2c(=O)ccn(Cc3ccc(NS(N)(=O)=O)cc3)c2cc1OC` [Example 151, N-(4-((6,7-dimethoxy-4-oxoquinolin-1 (4H)-yl)methyl)phenyl) sulfamide] the figure was below 0.1 µM; with `COc1cc2ncnc(-c3ccc4c(c3)CCC(NS(N)(=O)=O)C4)c2cc1OC` (stereo not drawn) [Example 131, N-(6-(6,7-dimethoxyquinazolin-4-yl)-1,2,3,4-tetrahydronaphthalen-2-yl)sulfamide], above 1 µM.
In the case of `COc1ccc2c(Oc3ccc(NS(N)(=O)=O)cn3)ccnc2c1` [Example 320, N-(6-((7-methoxyquinolin-4-yl)oxy)pyridin-3-yl)sulfamide], the Ki is below 0.1 µM.
For `COc1ccc2c(Oc3ccc(NS(N)(=O)=O)c(OC)c3)ccnc2c1` [Example 78, N-(2-methoxy-4-((7-methoxyquinolin-4-yl)oxy)phenyl)sulfamide], the inhibition constant (Ki) is below 0.1 µM.
The figure for `COc1cc(C#N)c(C(=O)N2CCC(CCNS(N)(=O)=O)CC2)cc1OC` [Example 129, N-(2-(1-(2-cyano-4,5-dimethoxybenzoyl)piperidin-4-yl)ethyl)sulfamide] is above 1 µM; for `Cn1ncc2c(N3CCC(CCNS(N)(=O)=O)CC3)ccnc21` [Example 135, N-(2-(1-(1-methyl-1H-pyrazolo[3,4-b]pyridin-4-yl)piperidin-4-yl)ethyl)sulfamide] it is 0.1 to 1 µM.
The figure for `COc1ccc(S(=O)(=O)N2CCN(CCO)CC2)cc1OC` [Example 340, 2-(4-((3,4-dimethoxyphenyl)sulfonyl)piperazin-1-yl)ethan-1-ol] is above 1 µM; for `COc1cc2nccc(NC(C)c3ccc(NS(N)(=O)=O)cc3)c2cc1OC` (stereo not drawn) [Example 181, N-(4-(1-((6,7-dimethoxyquinolin-4-yl)amino)ethyl)phenyl)sulfamide] it is above 1 µM; for `COc1ccc2c(Oc3cc(F)c(NS(N)(=O)=O)cc3F)ccnc2c1` [Example 79, N-(2,5-difluoro-4-((7-methoxyquinolin-4-yl)oxy)phenyl)sulfamide] it is below 0.1 µM.
With `COc1cc2ncnc(N3CCC(CCN(C)C)CC3)c2cc1OC` [Example 115, 2-(1-(6,7-dimethoxyquinazolin-4-yl)piperidin-4-yl)-N,N-dimethylethan-1-amine] the figure was 0.1 to 1 µM; with `NS(=O)(=O)NCCC1CCN(c2ncnc3cc(OC(F)(F)F)ccc23)CC1` [Example 209, N-(2-(1-(7-(trifluoromethoxy)quinazolin-4-yl)piperidin-4-yl)ethyl)sulfamide], above 1 µM.
For the molecule `COc1ccc2c(Oc3ccc(S(N)(=O)=O)cc3)c(C#N)cnc2c1` [Example 327, 4-((3-cyano-7-methoxyquinolin-4-yl)oxy)benzenesulfonamide], the Ki was below 0.1 µM.
With `COc1cc2ncnc(N3CC=C(c4ccc5c(c4)COB5O)CC3)c2cc1OC` [Example 157, 5-(1-(6,7-dimethoxyquinazolin-4-yl)-1,2,3,6-tetrahydropyridin-4-yl)benzo[c][1,2] oxaborol-1(3H)-ol] the figure was below 0.1 µM.
As to `COc1ccc2c(Oc3ccc(NS(N)(=O)=O)cc3)ccnc2c1F` [Example 268, N-(4-((8-fluoro-7-methoxyquinolin-4-yl)oxy)phenyl)sulfamide], the Ki was above 1 µM.
With `COc1ccc2c(Oc3ccc(NS(N)(=O)=O)cc3Cl)ccnc2c1` [Example 329, N-(3-chloro-4-((7-methoxyquinolin-4-yl)oxy)phenyl)sulfamide] the figure was 0.1 to 1 µM; with `COc1cc2nccc(Oc3ccc(NS(N)(=O)=O)nc3)c2cc1OC` [Example 176, N-(5-((6,7-dimethoxyquinolin-4-yl)oxy)pyridin-2-yl)sulfamide], above 1 µM; with `COc1ccc2nccc(Oc3ccc(NS(N)(=O)=O)cc3)c2n1` [Example 346, N-(4-((6-methoxy-1,5-naphthyridin-4-yl)oxy)phenyl)sulfamide], 0.1 to 1 µM.
Regarding `Cc1ncnc(N2CCC(CCNS(N)(=O)=O)CC2)c1C` [Example 15, N-(2-(1-(5,6-dimethylpyrimidin-4-yl)piperidin-4-yl)ethyl)sulfamide], the Ki was above 1 µM.
On to `COc1cc2ccn(-c3ccc(CNS(N)(=O)=O)cc3)c2cc1OC` [Example 186, N-(4-(5,6-dimethoxy-1H-indol-1-yl)benzyl)sulfamide], for which the Ki is above 1 µM.
With `COc1cc2ncc(Nc3ccc(NS(N)(=O)=O)cc3)nc2cc1OC` [Example 286, N-(4-((6,7-dimethoxyquinoxalin-2-yl)amino)phenyl)sulfamide] the figure was above 1 µM.
The figure for `COc1ccc2c(-c3cc4c(cc3F)CCN(S(N)(=O)=O)C4)ccnc2c1` [Example 409, 6-fluoro-7-(7-methoxyquinolin-4-yl)-3,4-dihydroisoquinoline-2(1H)-sulfamide] is above 1 µM; for `CCNS(=O)(=O)NCCC1CCN(c2ncnc3cc(OC)c(OC)cc23)CC1` [Example 139, 2-(1-(6,7-dimethoxyquinazolin-4-yl)piperidin-4-yl)ethan-1-amino(N-ethyl)sulfonamide] it is above 1 µM; for `COc1cc2nccc(Oc3ccc(N)c(F)c3)c2cc1OC` [Example 344, 4-((6,7-dimethoxyquinolin-4-yl)oxy)-2-fluoroaniline] it is above 1 µM.
The figure for `COc1cc2ncnc(Nc3ccc(CNS(N)(=O)=O)cc3)c2cc1OC` [Example 234, N-(4-((6,7-dimethoxyquinazolin-4-yl)amino)benzyl)sulfamide] is above 1 µM; for `NS(=O)(=O)Nc1ccc(Oc2ccnc3[nH]ccc23)cc1` [Example 321, N-(4-((1H-pyrrolo[2,3-b]pyridin-4-yl)oxy)phenyl)sulfamide] it is above 1 µM; for `COc1cc2ncnc(N3CCC(CCNS(=O)(=O)C(F)(F)F)CC3)c2cc1OC` [Example 146, N-(2-(1-(6,7-dimethoxyquinazolin-4-yl)piperidin-4-yl)ethyl)-1,1,1-trifluoromethanesulfonamide] it is 0.1 to 1 µM.
